Assay results published in US9708336B2, “Metallo-beta-lactamase inhibitors” (priority 2014, dated 2017).
Where two headings read alike, the source gives them in different places.

Columns and labels:
IMP-1 = IMP-1 (Serratia marcescens, UniProt P52699); assay: biochemical; format: biochemical; details: read-out: IMP-1 IC50
VIM-1 = VIM-1 (Pseudomonas aeruginosa (strain ATCC 15692 / DSM 22644 / CIP 104116 / JCM 14847 / LMG 12228 / 1C / PRS 101 / PAO1), UniProt A0A0F7KYQ8); assay: Enzyme activity: determination of IC50, fluorescence assay with CCF2-FA substrate (VIM-1); format: biochemical
[1] = tested on: Serratia marcescens expressing IMP-1 (CL5741); assay: Antibiotic potentiation activity: synergistic concentration (MITC95) with imipenem, OD600 growth; format: cell-based; details: for Serratia marcescens expressing IMP-1 (CL5741) MITC95: concentration giving 95% inhibition of bacterial growth; for Serratia marcescens MITC95: Serratia marcescens expressing IMP-1 (CL5741), 95% growth inhibition
Outline: (§1)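 Bacteria were grown overnight on agar at 35 °C, diluted 1:100 from saline into 1.1× CAMHB, then given compound with or without imipenem (4 μg/ml in assay, optionally 1 μg/ml). Endpoint: absorbance at 22–24 h.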

[2] = tested on: Klebsiella pneumoniae expressing VIM-1 (IHMA599644); assay: as above; format: cell-based; details: for Klebsiella pneumoniae expressing VIM-1 (IHMA 599644) MITC95: concentration giving 95% inhibition of bacterial growth; for Klebsiella pneumoniae MITC95: Klebsiella pneumoniae expressing VIM-1 (IHMA599644), 95% growth inhibition
Outline: as §1

[3] = tested on: Escherichia coli expressing NDM-1 (CLB30016); assay: as above; format: cell-based; details: for Escherichia coli expressing NDM-1 (CLB 30016) MITC95: concentration giving 95% inhibition of bacterial growth; for Escherichia coli MITC95: Escherichia coli expressing NDM-1 (CLB30016), 95% growth inhibition
Outline: as §1

[4] = tested on: Escherichia coli expressing NDM-1 (CLB30005); assay: as above; format: cell-based; details: for Escherichia coli expressing NDM-1 (CLB 30005) MITC95: concentration giving 95% inhibition of bacterial growth; for Escherichia coli MITC95: Escherichia coli expressing NDM-1 (CLB30005), 95% growth inhibition
Outline: as §1

NDM-1 = NDM-1 (Klebsiella pneumoniae, UniProt C7C422); assay: biochemical; format: biochemical; details: read-out: NDM-1 IC50
[5] = fluorescence assay with CCF2-FA substrate
[6] = fluorescence assay with CCF2-FA substrate, read-out: VIM-1 IC50
[7] = VIM-1 IC50, fluorescence assay with CCF2-FA substrate
[8] = IMP-1 enzyme, CCF2-FA fluorescence assay
[9] = NDM-1 enzyme, CCF2-FA fluorescence assay
[10] = VIM-1 enzyme, CCF2-FA fluorescence assay, read-out: VIM-1 IC50
[11] = VIM-1 IC50, VIM-1 enzyme, CCF2-FA fluorescence assay

Chain of NDM-1 (C7C422 whole entry, looked up, species assumed): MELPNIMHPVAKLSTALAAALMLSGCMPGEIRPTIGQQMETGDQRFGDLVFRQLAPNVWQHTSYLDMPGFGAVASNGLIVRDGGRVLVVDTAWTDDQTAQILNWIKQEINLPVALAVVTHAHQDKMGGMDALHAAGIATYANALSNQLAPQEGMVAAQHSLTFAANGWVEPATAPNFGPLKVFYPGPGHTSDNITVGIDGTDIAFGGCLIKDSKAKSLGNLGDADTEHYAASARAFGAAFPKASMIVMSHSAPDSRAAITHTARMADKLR
Chain of IMP-1 (P52699 whole entry, looked up): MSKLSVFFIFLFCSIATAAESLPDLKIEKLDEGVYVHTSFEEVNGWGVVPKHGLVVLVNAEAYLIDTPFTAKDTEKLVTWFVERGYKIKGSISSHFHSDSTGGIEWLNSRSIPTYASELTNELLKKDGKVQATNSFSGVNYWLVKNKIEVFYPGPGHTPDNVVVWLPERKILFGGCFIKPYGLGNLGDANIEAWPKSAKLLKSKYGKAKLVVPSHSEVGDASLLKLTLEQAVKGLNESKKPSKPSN

SMILES | IC50 (IMP-1; [5]) | IC50 (VIM-1; [6]) | Serratia marcescens expressing IMP-1 (CL5741) MITC95 [1] | Klebsiella pneumoniae expressing VIM-1 (IHMA 599644) MITC95 [2] | Escherichia coli expressing NDM-1 (CLB 30016) MITC95 [3] | Escherichia coli expressing NDM-1 (CLB 30005) MITC95 [4] | IC50 (NDM-1; [5]) | IC50 (VIM-1; [7]) | IC50 (IMP-1; [8]) | Serratia marcescens MITC95 [1] | Klebsiella pneumoniae MITC95 [2] | Escherichia coli MITC95 [3] | Escherichia coli MITC95 [4] | IC50 (NDM-1; [9]) | IC50 (VIM-1; [10]) | IC50 (VIM-1; [11])
Cc1ccc(-c2cccc(S(N)(=O)=O)c2-c2nnn[nH]2)cc1 [Example 1, 4′-Methyl-2-(1H-tetrazol-5-yl)-[1,1′-biphenyl]-3-sulfonamide] | 64.8 nM | 57.6 nM | 11.96 µM | 123.3 µM | 0.7595 µM | 1.489 µM | 3.77 nM |  |  |  |  |  |  |  |  | 
CN(C)CCCOc1ccc(-c2cccc(S(N)(=O)=O)c2-c2nn[nH]n2)cn1 [Example 30, 3-(6-(3-(dimethylamino)propoxy)pyridin-3-yl)-2-(2H-tetrazol-5-yl)benzenesulfonamide] | 1670 nM |  | 50 µM | 200 µM | 1.563 µM | 3.125 µM | 132 nM | 875 nM |  |  |  |  |  |  |  | 
NS(=O)(=O)c1cccc(-c2cncnc2)c1-c1nn[nH]n1 [Example 42, 3-pyrimidin-5-yl-2-(2H-tetrazol-5-yl)benzenesulfonamide] | 10500 nM | 9960 nM | 200 µM | >200 µM | 0.7813 µM | 1.563 µM | 543 nM |  |  |  |  |  |  |  |  | 
CS(=O)(=O)Nc1ccc(-c2cccc(S(N)(=O)=O)c2-c2nn[nH]n2)cc1 [Example 82, 4′-[(methylsulfonyl)amino]-2-(2H-tetrazol-5-yl)biphenyl-3-sulfonamide] | 22.2 nM |  | 3.125 µM | 12.5 µM | 0.5859 µM | 1.953 µM | 1.43 nM | 7.79 nM |  |  |  |  |  |  |  | 
NS(=O)(=O)c1cccc(-c2cnn3ccccc23)c1-c1nn[nH]n1 [Example 98, 3-pyrazolo[1,5-a]pyridin-3-yl-2-(2H-tetrazol-5-yl)benzenesulfonamide] | 320 nM |  | 7.813 µM | 18.75 µM | 0.7813 µM | 0.9766 µM | 2.7 nM | 29.4 nM |  |  |  |  |  |  |  | 
NS(=O)(=O)c1cccc(-c2ccc(C3CCNC3)cc2)c1-c1nnn[nH]1 (stereo not shown) [Example 180, 4′-(pyrrolidin-3-yl)-2-(1H-tetrazol-5-yl)-[1,1′-biphenyl]-3-sulfonamide] | 113 nM | 22.4 nM | 3.125 µM | 4.688 µM | 0.5 µM | 0.3906 µM | 9.91 nM |  |  |  |  |  |  |  |  | 
NS(=O)(=O)c1nccc(-c2ccc(CO)cc2)c1-c1nnn[nH]1 [Example 181, 4-(4-(Hydroxymethyl)phenyl)-3-(1H-tetrazol-5-yl)pyridine-2-sulfonamide] | 375 nM | 184 nM | 12.5 µM | 18.75 µM | 0.6727 µM | 1.953 µM | 27.9 nM |  |  |  |  |  |  |  |  | 
CS(=O)(=O)Nc1ccc(-c2ccnc(S(N)(=O)=O)c2-c2nn[nH]n2)cc1 [Example 206, 4-(4-(methylsulfonamido)phenyl)-3-(2H-tetrazol-5-yl)pyridine-2-sulfonamide] | 91.5 nM | 14.2 nM | 4.125 µM | 3.125 µM | 0.375 µM | 0.1953 µM | 11.4 nM |  |  |  |  |  |  |  |  | 
NS(=O)(=O)c1nccc(-c2ccccc2)c1-c1nn[nH]n1 [Example 207, 4-phenyl-3-(2H-tetrazol-5-yl)pyridine-2-sulfonamide] | 373 nM | 201 nM |  |  | 0.5 µM | 0.1953 µM | 35.1 nM |  |  |  |  |  |  |  |  | 
NS(=O)(=O)c1cccc(-c2cnc3[nH]ncc3c2)c1-c1nn[nH]n1 [Example 309, 3-(1H-pyrazolo[3,4-b]pyridin-5-yl)-2-(2H-tetrazol-5-yl)benzenesulfonamide] |  |  |  |  |  |  |  |  | 326 nM | 8.333 µM | 5.729 µM | 0.7813 µM | 0.3906 µM | 1.35 nM |  | 
Nc1ncc(-c2cccc(S(N)(=O)=O)c2-c2nn[nH]n2)cc1F [Example 314, 3-(6-amino-5-fluoropyridin-3-yl)-2-(2H-tetrazol-5-yl)benzenesulfonamide] |  |  |  |  |  |  |  |  | 292 nM | 5.469 µM | 3.906 µM | 0.3906 µM | 0.1953 µM | 3.65 nM |  | 
Cc1ccccc1-c1cccc(S(N)(=O)=O)c1-c1nn[nH]n1 [Example 325, 2′-methyl-2-(2H-tetrazol-5-yl)-[1,1′-biphenyl]-3-sulfonamide] |  |  |  |  |  |  |  |  | 228 nM | 25 µM | 37.5 µM |  | 3.125 µM | 1.3 nM | 13.1 nM | 
NS(=O)(=O)c1cccc(-c2ccccc2O)c1-c1nn[nH]n1 [Example 326, 2′-hydroxy-2-(2H-tetrazol-5-yl)-[1,1′-biphenyl]-3-sulfonamide] |  |  |  |  |  |  |  |  | 370 nM | 18.75 µM | 37.5 µM |  | 3.32 µM | 3.65 nM | 136 nM | 
CN(C)Cc1ccc(-c2cccc(S(N)(=O)=O)c2-c2nnn[nH]2)cc1 [Example 327, 4′-((Dimethylamino)methyl)-2-(1H-tetrazol-5-yl)-[1,1′-biphenyl]-3-sulfonamide] |  |  |  |  |  |  |  |  | 534 nM | 12.5 µM | 100 µM |  | 0.7813 µM | 37.7 nM |  | 216 nM
CCOCc1ccc(-c2cccc(S(N)(=O)=O)c2-c2nnn[nH]2)cc1 [Example 397, 4′-(Ethoxymethyl)-2-(1H-tetrazol-5-yl)-[1,1′-biphenyl]-3-sulfonamide] |  |  |  |  |  |  |  |  | 37.3 nM | 9.375 µM | >200 µM |  | 3.906 µM | 3.93 nM |  | 246 nM
Cc1ccc(-c2cccc(S(N)(=O)=O)c2-c2nnn[nH]2)nc1 [Example 398, 3-(5-Methylpyridin-2-yl)-2-(1H-tetrazol-5-yl)benzenesulfonamide] |  |  |  |  |  |  |  |  | 1210 nM | 50 µM | 100 µM |  | 1.563 µM | 43 nM | 312 nM | 
